Test results as given in patent US20260263482A1, “COMPOSITION AND METHOD FOR INDUCING LUTEOLYSIS” (WELFARE CONCEPTS LIMITED, priority 2023, published 2026).
Where two headings read alike, the source gives them in different places. Each block holds one compound with its values, some of them ahead of it.

Assays:
[1] = Titration of cloprostenol sodium with calcium or zinc salts, cloprostenol in supernatant by HPLC; assay type: physicochemical
Experimental: Water-insoluble salts of cloprostenol were investigated as a means of prolonging release of cloprostenol after administration. Solutions of cloprostenol sodium were titrated with calcium chloride, zinc chloride or zinc acetate solutions. The resulting mixtures were vortexed, left to stand overnight then observed for precipitation possibly due to formation of an insoluble salt. Samples with a visible precipitate were centrifuged at 15000 rpm for 5 min and the supernatant was then removed for analysis of cloprostenol by validated HPLC.

physchem = assay type: physicochemical; settings: for solubility: water, water solubility
Experimental: Water-in-oil (w/o) emulsions of cloprostenol sodium were investigated for use as sustained release compositions of cloprostenol. […] In aqueous solution cloprostenol sodium micellises at concentrations around 5-10 mg/ml. The minimum quantity of water to dissolve a 3 mg dose of cloprostenol (as the sodium salt) is around 0.1 ml. Accordingly, a target volume of 2 ml of water-in-oil emulsion requires a minimum proportion of around 5% water to incorporate a 3 mg dose of cloprostenol.

[2] = Chemical stability of cloprostenol in ethanol and Transcutol; assay type: physicochemical; settings: 40° C., 4 days, HPLC
Experimental: The chemical stability of cloprostenol was tested in ethanol and Transcutol. A cloprostenol solution (1 mg/ml) was prepared in each solvent and stored in at 40° C. for 4 days. The solutions were then removed and injected into HPLC for cloprostenol quantification and the chromatogram inspected for the formation of new (degradation) peaks. Cloprostenol in solution in ethanol and Transcutol at 40° C. was stable for the 4 days tested. […] There were no degradation peaks in the chromatograms.

[3] = Authors' study / animal trial: half-life from terminal slope of plasma concentration versus time profile; assay type: in vivo; settings: cattle, intramuscular
Experimental: Literature has reported a half-life for cloprostenol of around 90 minutes, with a maximum concentration reached at around 10 to 20 minutes after administration.
The inventors have also used various models to describe the absorption kinetics of cloprostenol. The most recent model was to describe the release from SAIB formulations as occurring as a burst of some percentage of the dose followed by a rate of release proportional to the square root of time. In an animal trial, the inventors calculated the terminal slope of the plasma concentration versus time profile. If absorption is very rapid—ie. as from standard cloprostenol injection, Ovuprost™, this terminal slope is related to the elimination half-life of the cloprostenol. The inventors found this half-life to be 1 hour. The literature reports the elimination half-life of cloprostenol to be 1.5-3 hours. If absorption is slow, the terminal slope relates to the absorption rate of the cloprostenol from the injection.
In cattle, the conventional intramuscular injected dose of natural PGF2α is 25 mg whereas the intramuscular injected dose of cloprostenol in 0.5 mg. PGF2α has a half-life of about 8-10 minutes whereas the cloprostenol half-life is from around 1 hour as determined by the authors' study and reported elsewhere as 1.5-3 hours.

[4] = literature; cited from earlier work

solubility of the calcium salt ([1]; titration with calcium chloride, mixtures remained apparently clear): good solubility
SMILES: O=C([O-])CCCC=CCC1C(O)CC(O)C1C=CC(O)COc1cccc(Cl)c1.O=C([O-])CCCC=CCC1C(O)CC(O)C1C=CC(O)COc1cccc(Cl)c1.[Ca+2] (stereo not drawn) [calcium cloprostenol]

concentration at which it micellises in aqueous solution (physchem): 5000 to 10000 µg/mL
solubility (physchem): > 10 mg/mL
solubility (physchem; estimated): ~35 mg/mL
SMILES: O=C(O)CCC/C=C\CC1C(O)CC(O)C1/C=C/C(O)COc1cccc(Cl)c1 (stereo not drawn) [cloprostenol sodium]

cloprostenol still contained in supernatant at best yield of precipitate ([1]; zinc acetate): around 50%
cloprostenol still contained in supernatant at best yield of precipitate ([1]; zinc chloride as counter cation): around 74%
measured drug content ([2]; 1 mg/ml in Transcutol): 102%
measured drug content ([2]; 1 mg/ml in ethanol): 101%
half-life ([3]; Holstein, 0.5 mg, very rapid absorption, standard cloprostenol injection, read-out: half-life (terminal slope, elimination) (converted)): ~1 h
half-life ([3]; 0.5 mg cloprostenol as the sodium salt in a fast-release aqueous composition, read-out: estimated half-life of cloprostenol in plasma): 0.25 to 1 h
SMILES: O=C(O)CCC/C=C\CC1C(O)CC(O)C1/C=C/C(O)COc1cccc(Cl)c1 (stereo not drawn) [cloprostenol]
elimination half-life of cloprostenol [4]: 1.5 to 3 h
half-life for cloprostenol [4]: around 90 minutes
